Measurements published in patent publication US8822477B2, “Use of osmolytes obtained from extremophilic bacteria for producing medicine for the external treatment of neurodermatitis” (Bitop AG, priority 2003, dated 2014).

Tested on: neurodermatitis
Assay: topical treatment of neurodermatitis compared with placebo treatment
Format: in vivo
Details: for healing of affected skin changes: in comparison to a placebo treatment; for effectiveness in the treatment of neurodermatitis: topic application

CC1=NCC[C@@H](C(=O)O)N1 [ectoine]
healing of affected skin changes: unexpectedly accelerated healing of affected skin changes
effectiveness in the treatment of neurodermatitis: surprisingly high effectiveness

CC1=NC[C@H](O)[C@@H](C(=O)O)N1 [hydroxyectoine]
healing of affected skin changes: unexpectedly accelerated healing of affected skin changes
effectiveness in the treatment of neurodermatitis: surprisingly high effectiveness
